Reference: PubChem BioAssay AID2060351 (Molecular Pharmacology Branch, DTP, NCI, 2025)
Where “and” joins values, the source holds several entries; their conditions need not be identical. Equal entries are not always repeated.

System: 521955-158-R7-J2-PDC spheroids, viability % test/control
Assay: Anticancer human tumor 521955-158-R7-J2-PDC patient-derived pancreatic carcinoma cell line growth inhibition [TAK]
Details: spheroids with HUVEC and MSC; for viability, T/C: stronger effect = lower value
Description: Combinatorial screen of targeted agents with TAK-243 and ipatasertib in multi-cell type tumor spheroids
A high-throughput screen of multi-cell type tumor spheroids was designed to identify active combinations of targeted small molecules and TAK-243 or ipatasertib. Complex spheroids include a stromal component modeled by human endothelial cells (HUVEC) and fibroblasts modeled by human mesenchymal stem cells (MSCs). The concentration ranges selected for each drug and investigational agent were based upon clinically achievable concentrations if the clinical Cmax of the agent was known.
Compounds. The drugs and investigational agents: TAK-243 (785004), ipatasertib (767898), everolimus (733504), selumetinib (741078), bortezomib (756655), trametinib (758246), ixazomib (758254), vemurafenib (761431), dabrafenib (764134), sapanisertib (764658), alpelisib (765974), and copanlisib (816437), were obtained from the National Cancer Institute (NCI) Developmental Therapeutics Program Chemical Repository. The FDA-approved anticancer drug set is available from the NCI Developmental Therapeutics Program. […] The stock solutions were prepared in dimethyl sulfoxide (DMSO, Sigma-Aldrich, St. Louis, MO, cat. D2650) at 800-fold the tested concentration and stored at -70 degrees C prior to their use. All drugs and investigational agents were tested over a range starting from a high concentration at or near the clinical Cmax and decreasing in half-log increments. If the clinical Cmax for an agent had not been determined, the highest concentration tested was 10 microM.
NCI60 Cell Culture. NCI60 cell lines were obtained from the NCI Developmental Therapeutics Program Tumor Repository. For each lot of cells, the Repository performed Applied Biosystems AmpFLSTR Identifiler testing with PCR amplification to confirm consistency with the published Identifier STR profile for each cell line. Cells were kept in continuous culture for no more than 20 passages. The optimal seeding densities for each of the cell lines at each time point assessed were determined prior to performing the concentration response studies. Briefly, the NCI60 human tumor lines were grown as monolayers in RPMI 1640 medium supplemented with 10% FBS and 2 mmol/L L-glutamine.
An additional 2 lines were from the NCI60 cell line panel including melanomas, MALME-3M and SK-MEL-2. Pooled donor human umbilical vein endothelial cells (HUVEC, Lonza, cat. CC-2519) and human mesenchymal stem cells (hMSC, Lonza, cat. PT-2501) were purchased from Lonza (Walkersville, MD).
PDMR cell lines were grown in complete medium (DC medium): Dulbecco's modified Eagle's medium (DMEM)/F12 supplemented with 5% fetal bovine serum (FBS), 2 mM L-glutamine, 100 U/mL penicillin and 100 µg/ml streptomycin, 0.4 µg/ml hydrocortisone, 10 ng/ml epidermal growth factor (EGF) recombinant human protein, 24 µg/mL adenine, and 0.1 mg/mL primocin. During culture from frozen stock vials, PDMR cells were cultured in the same medium containing 10 µM Y-27632 (see Table 3). The PDCs were cultured in complete DMEM/F12 media without 10 microM Y-27632 dihydrochloride for at least two passages prior to the screen. The pooled donor HUVEC and hMSC were cultured in endothelial cell growth medium 2 (PromoCell, Heidelberg, Germany, cat. C-22011) and mesenchymal stem cell growth medium 2 (PromoCell, cat. C-28009), respectively. For all experiments, HUVEC and hMSC were used at passages </=5.
For the pre-screen, cell seeding densities were determined from a titration spanning the range from 5,000 to 313 cells per well. The mct-spheroids including 60% malignant cells, 25% HUVEC and 15% MSC dispensed as a mixture into U-bottom Ultra-Low Attachment 384-well plates (Corning, NY)
High-throughput Drug Combination Screening.
Prior to their inoculation into 384-well plates, malignant cells, HUVEC, and hMSC were removed from T flasks using TrypLE express (Thermo Fisher Scientific, cat. 12605036) and harvested by centrifugation for 5 min at 233 x g. […]
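Further: spheroids exposed to compound for 7 days before readout.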

In the case of Cc1nc(NC(=O)N2CCCC2C(N)=O)sc1-c1ccnc(C(C)(C)C(F)(F)F)c1 (stereo not drawn), the viability, T/C (compound 0.0316 µM) is reported as 83.2% and 92.5%, the viability, T/C (compound 0.1 µM) is reported as 64.2% and 84.5% and the viability, T/C (compound 0.316 µM) is reported as 59.4% and 74%. For the same compound, the viability, T/C (compound 1 µM) was 70.8% and 73.5%, the viability, T/C (compound 3.16 µM) was 58.1% and 52.5% and the viability, T/C (compound 10 µM) was 34.1% and 30.3%. The IC50 (curve of compound) was 4.56 µM and 3.72 µM.
With COC1CC2CCC(C)C(O)(O2)C(=O)C(=O)N2CCCCC2C(=O)OC(C(C)CC2CCC(OCCO)C(OC)C2)CC(=O)C(C)C=C(C)C(O)C(OC)C(=O)C(C)CC(C)C=CC=CC=C1C (stereo not drawn) the viability, T/C (compound 0.000316 µM) was 103%, the viability, T/C (compound 0.001 µM) was 77.4% and 84.4% and the viability, T/C (compound 0.00316 µM) was 75.2% and 91.7%. For the same compound, the viability, T/C (compound 0.01 µM) was 90.3% and 101%, the viability, T/C (compound 0.0316 µM) was 109% and 117% and the viability, T/C (compound 0.1 µM) was 102% and 85.5%. The IC50 (curve of compound) was greater than 0.1 µM.
CCCS(=O)(=O)Nc1ccc(F)c(C(=O)c2c[nH]c3ncc(-c4ccc(Cl)cc4)cc23)c1F + CC(C)NCC(C(=O)N1CCN(c2ncnc3c2C(C)CC3O)CC1)c1ccc(Cl)cc1 gave an IC50 (curve of first compound, second compound 0.3 µM) greater than 100 µM, an IC50 (curve of first compound, second compound 0.949 µM) greater than 100 µM and an IC50 (curve of first compound, second compound 3 µM) greater than 100 µM. The IC50 (curve of first compound, second compound 9.49 µM) was 21.8 µM, the IC50 (curve of first compound, second compound 30 µM) was 6.43 µM and the viability, T/C (second compound 0.3 µM, first compound 0.316 µM) was 85.9%. The viability, T/C (second compound 0.3 µM, first compound 1 µM) was 83.5%, the viability, T/C (second compound 0.3 µM, first compound 3.16 µM) was 85.8% and the viability, T/C (second compound 0.3 µM, first compound 10 µM) was 108%. The viability, T/C (second compound 0.3 µM, first compound 31.6 µM) was 69.5%, the viability, T/C (second compound 0.3 µM, first compound 100 µM) was 81.8% and the viability, T/C (second compound 0.949 µM, first compound 0.316 µM) was 84.4%. The viability, T/C (second compound 0.949 µM, first compound 1 µM) was 94.1%, the viability, T/C (second compound 0.949 µM, first compound 3.16 µM) was 90.9% and the viability, T/C (second compound 0.949 µM, first compound 10 µM) was 107%. For the same compound, the viability, T/C (second compound 0.949 µM, first compound 31.6 µM) was 53.6%, the viability, T/C (second compound 0.949 µM, first compound 100 µM) was 87% and the viability, T/C (second compound 3 µM, first compound 0.316 µM) was 82.9%. The viability, T/C (second compound 3 µM, first compound 1 µM) was 89.1%, the viability, T/C (second compound 3 µM, first compound 3.16 µM) was 105% and the viability, T/C (second compound 3 µM, first compound 10 µM) was 88.5%. The viability, T/C (second compound 3 µM, first compound 31.6 µM) was 54%, the viability, T/C (second compound 3 µM, first compound 100 µM) was 50.5% and the viability, T/C (second compound 9.49 µM, first compound 0.316 µM) was 85.4%. It also gave a viability, T/C (second compound 9.49 µM, first compound 1 µM) of 107%, a viability, T/C (second compound 9.49 µM, first compound 3.16 µM) of 99.8% and a viability, T/C (second compound 9.49 µM, first compound 10 µM) of 73.7%. For the same compound, the viability, T/C (second compound 9.49 µM, first compound 31.6 µM) was 39.9%, the viability, T/C (second compound 9.49 µM, first compound 100 µM) was 32.4% and the viability, T/C (second compound 30 µM, first compound 0.316 µM) was 107%. It also gave a viability, T/C (second compound 30 µM, first compound 1 µM) of 119%, a viability, T/C (second compound 30 µM, first compound 3.16 µM) of 127% and a viability, T/C (second compound 30 µM, first compound 10 µM) of 5.6%. For the same compound, the viability, T/C (second compound 30 µM, first compound 31.6 µM) was 5.46% and the viability, T/C (second compound 30 µM, first compound 100 µM) was 13.1%.
For CC(C)CC(NC(=O)CNC(=O)c1cc(Cl)ccc1Cl)B1OC(=O)CC(CC(=O)O)(C(=O)O)O1 (stereo not drawn), the viability, T/C (compound 0.000316 µM) was 111% and 81.1%, the viability, T/C (compound 0.001 µM) was 73.9% and 80.3% and the viability, T/C (compound 0.00316 µM) was 90.1% and 80%. For the same compound, the viability, T/C (compound 0.01 µM) was 111% and 82.8%, the viability, T/C (compound 0.0316 µM) was 65.7% and 50.1% and the viability, T/C (compound 0.1 µM) was 2.27% and 1.64%. The IC50 (curve of compound) was 0.042 µM and 0.0316 µM.
In the case of CC(C)CC(NC(=O)C(Cc1ccccc1)NC(=O)c1cnccn1)B(O)O (stereo not drawn), the viability, T/C (compound 31.6 pM) is reported as 94% and 103%, the viability, T/C (compound 0.0001 µM) is reported as 82.3% and 99.8% and the viability, T/C (compound 0.000316 µM) is reported as 96.1% and 93.2%. For the same compound, the viability, T/C (compound 0.001 µM) was 88.4% and 100%, the viability, T/C (compound 0.00316 µM) was 103% and 93% and the viability, T/C (compound 0.01 µM) was 4.87% and 2.64%. For the same compound, the IC50 (curve of compound) was 0.00554 µM and 0.00547 µM.
